How the values were obtained:
E. coli = assay: Rapid bactericidal activity of liquid wash formulations; format: cell-based; details: in formulation IV, 30 s
Experimental: (§1) A control of each formulation is left un-perfumed. The rapid bactericidal activity of these formulations is then tested as follows: • The products are diluted 1:1 in hard water as defined in the European standard EN 1276. This mimics conditions of use on wet hands or wet surfaces in commonly used water. • 500 μl of the product is mixed with 25 μl of a bacterial inoculum containing 2×10^8 cfu/ml (colony forming units). • The mixture is incubated for 30 seconds at 37° C. • 20 μl of the mixture is removed and added to 180 μl neutralising solution (containing 3 g lecithin, 30 g Tween® 80, 5 g sodium thiosulfate, 1 g histidine, 30 g saponin, 8.5 g sodium chloride, 1 g tryptone and 1000 ml water). • The mixture with neutraliser is incubated for 1 min • Serial dilutions of the mixture with neutralising solution are made, and aliquots of these are added to Petri-dishes and embedded in tryptic soy agar containing 0.5% Tween® 80 to inactivate any residual antibacterial compounds. • Bacterial numbers are counted after 24 h incubation at 37° C. and compared to control samples. • Reduction in bacterial viability is determined as described in example 1
Formulations are tested in a dilution of 1:1 and with 30 seconds contact time to bacteria (E. coli). […]

S. aureus = assay: as above; format: cell-based; details: in formulation IV, 30 s
Experimental: as §1, with “The above formulations are supplemented with 0.9% (w/v) of the perfume composition A of example 2. A” for “A”
Formulation IV of example 3 is supplemented with different concentrations of phenolic biocides and different concentrations of the perfume composition A of example 2. The reduction in viability of various test organisms is determined at different dilutions of the formulation (1:1 or 1:3 to simulate conditions of use) after 30 seconds contact time.

Row | Structure (SMILES) | rapid bactericidal effect, E. coli 1:1 (E. coli; Biocide 0.2%, Perfume 0%) | rapid bactericidal effect, E. coli 1:3 (E. coli; Biocide 0.2%, Perfume 0%) | rapid bactericidal effect, E. coli 1:1 (E. coli; Biocide 0.2%, Perfume 0.45%) | rapid bactericidal effect, E. coli 1:3 (E. coli; Biocide 0.2%, Perfume 0.45%) | rapid bactericidal effect, E. coli 1:1 (E. coli; Biocide 0.4%, Perfume 0%) | rapid bactericidal effect, E. coli 1:3 (E. coli; Biocide 0.4%, Perfume 0%) | rapid bactericidal effect, E. coli 1:1 (E. coli; Biocide 0.4%, Perfume 0.45%) | rapid bactericidal effect, E. coli 1:3 (E. coli; Biocide 0.4%, Perfume 0.45%) | rapid bactericidal effect, S. aureus conc. (S. aureus; Biocide 0.2%, Perfume 0%) | rapid bactericidal effect, S. aureus conc. (S. aureus; Biocide 0.2%, Perfume 0.45%) | rapid bactericidal effect, S. aureus conc. (S. aureus; Biocide 0.4%, Perfume 0%) | rapid bactericidal effect, S. aureus conc. (S. aureus; Biocide 0.4%, Perfume 0.45%)
1 | Oc1ccc(Cl)cc1Cc1ccccc1 [2-benzyl-4-chlorphenol] | 1 | 1 | >250 | 2 | 18 | 1 | >250 | 4 | 1 | 1 | 3 | 21
2 | Oc1cc(Cl)ccc1Oc1ccc(Cl)cc1Cl [Triclosan, 2,4,4′-trichloro-2′-hydroxy-diphenylether] | 1 | 1 | >250 | 2 | – | – | – | – | 12 | 31 | – | –

— patent US20080118591A1, “Bactericidal Formulations” (priority 2004, published 2008)
